Tested on: protéine tyrosine hydroxylase (TH)
Experiment: Induction of tyrosine hydroxylase in the locus coeruleus of mice (immunodetection and image analysis of brain sections)
Assay type: in vivo, souris Balb/C
Conditions: i.p. 20 mg/kg, single injection, 3 days after, % par rapport à la valeur moyenne du groupe témoin; for quantité de TH au niveau du LC, coupe 1: coupe 1 du LC (sens antérieur vers postérieur); for quantité de TH au niveau du LC, coupe 2: coupe 2 du LC (sens antérieur vers postérieur); for quantité de TH au niveau du LC, coupe 3: coupe 3 du LC (sens antérieur vers postérieur); for quantité de TH au niveau du LC, coupe 4: coupe 4 du LC (sens antérieur vers postérieur); for quantité de TH au niveau du LC, coupe 5: coupe 5 du LC (sens antérieur vers postérieur); for quantité de TH au niveau du LC, coupe 6: coupe 6 du LC (sens antérieur vers postérieur); for quantité de TH au niveau du LC, coupe 7: coupe 7 du LC (sens antérieur vers postérieur); for quantité de TH au niveau du LC, coupe 8: coupe 8 du LC (sens antérieur vers postérieur)
Excerpt: Il est recherché, parmi les dérivés, ceux qui sont capables d'induire une augmentation de la protéine tyrosine hydroxylase (TH) dans le cerveau de la souris Balb/C, au niveau du locus coeruleus (LC).
Les animaux utilisés sont des souris mâles de la lignée pure Balb/C (Charles River Laboratories), âgées de 7 à 8 semaines au moment du traitement.
Les souris reçoivent une injection unique par voie intrapéritonéale du composé à tester, dissous dans une solution d'HCl 0,04 M (contrôle correspondant : HCl […]) si le composé est suffisamment soluble, ou dans l'huile d'olive 90 % / DMSO 10 % (contrôle correspondant : huile d'olive 90 % / DMSO 10 %) pour les composés insolubles en milieu aqueux.
Trois jours après l'injection de chaque molécule, tous les animaux sont sacrifiés par décapitation. Les cerveaux extraits sont ensuite congelés dans de l'azote liquide et conservés à -80° C.
Des coupes coronales de 8 microns d'épaisseur sont pratiquées le long de l'axe postéro-antérieur du LC et fixées. Les coupes sont transférées sur membranes Immobilon-P. La TH est mesurée par immunodétection et analyse d'image.

## C=CCN1CCC[C@@H]2C(=O)N3c4ccccc4C[C@@H]3[C@H]21 [Exemple 43, (4aS,11aR,11bS)-1-Allyl-1,2,3,4,4a,11,11a,11b-octahydropyrido[2',3':3,4]pyrrolo[1,2-a]indol-5-one]
Listed as Ex.43, 20 mg/kg
  quantité de TH au niveau du LC, coupe 1: 69%
  quantité de TH au niveau du LC, coupe 2: 88%
  quantité de TH au niveau du LC, coupe 3: 87%
  quantité de TH au niveau du LC, coupe 4: 60%
  quantité de TH au niveau du LC, coupe 5: 36%
  quantité de TH au niveau du LC, coupe 6: 34%
  quantité de TH au niveau du LC, coupe 8: 4%
  quantité de TH au niveau du LC, coupe 7: 9%

## O=C1C[C@@H]2[C@H]3[C@@H](CCN2Cc2ccccc2)c2ccccc2N13 (racemic) [Exemple 53, (3aRS,10bSR,10cRS)-3-Benzyl-2,3,3a,4,10b,10c-hexahydrobenzo [b]pyrido [2,3,4-gh]pyrrolizin-5(1H)-one]
  quantité de TH au niveau du LC, coupe 1: 82%
  quantité de TH au niveau du LC, coupe 2: 68%
  quantité de TH au niveau du LC, coupe 3: 64%
  quantité de TH au niveau du LC, coupe 4: 71%
  quantité de TH au niveau du LC, coupe 5: 53%
  quantité de TH au niveau du LC, coupe 6: 52%
  quantité de TH au niveau du LC, coupe 7: 32%
  quantité de TH au niveau du LC, coupe 8: 18%

## C=CCN1CCC[C@H]2C(=O)N3c4ccccc4C[C@H]3[C@@H]21 [Exemple 44, (4aR,11aS,11bR)-1-allyl-1,2,3,4a,11,11a,11b-octahydropyrido[2':3':3.4]pyrrolo[1,2-a]indol-5-one]
  quantité de TH au niveau du LC, coupe 1: 83%
  quantité de TH au niveau du LC, coupe 2: 99%
  quantité de TH au niveau du LC, coupe 3: 78%
  quantité de TH au niveau du LC, coupe 4: 58%
  quantité de TH au niveau du LC, coupe 5: 38%
  quantité de TH au niveau du LC, coupe 6: 29%
  quantité de TH au niveau du LC, coupe 7: 18%
  quantité de TH au niveau du LC, coupe 8: 3%

## Cc1ccc2c(c1)CC1C3=C(CCCN3C)C(=O)N21 (racemic) [Exemple 40, (11aRS)-1,9-Diméthyl-1,2,3,4,11,11a-hexahydropyrido [2',3':3,4] pyrrolo[1,2-a]indol-5-one]
  quantité de TH au niveau du LC, coupe 1: 72%
  quantité de TH au niveau du LC, coupe 2: 96%
  quantité de TH au niveau du LC, coupe 3: 66%
  quantité de TH au niveau du LC, coupe 4: 66%
  quantité de TH au niveau du LC, coupe 5: 58%
  quantité de TH au niveau du LC, coupe 6: 34%
  quantité de TH au niveau du LC, coupe 7: 39%
  quantité de TH au niveau du LC, coupe 8: 4%

## O=C1[C@H]2CCCN[C@H]2[C@@H]2Cc3cc(F)ccc3N12 (racemic) [Exemple 24, (4aSR,11aSR,11bRS)-9-Fluoro-1,2,3,4,4a,11,11a,11b-octahydropyrido[2',3':3,4]pyrrolo[1,2-a]indol-5-one]
  quantité de TH au niveau du LC, coupe 1: 51%
  quantité de TH au niveau du LC, coupe 2: 71%
  quantité de TH au niveau du LC, coupe 3: 63%
  quantité de TH au niveau du LC, coupe 4: 55%
  quantité de TH au niveau du LC, coupe 5: 44%
  quantité de TH au niveau du LC, coupe 6: 33%
  quantité de TH au niveau du LC, coupe 7: 6%
  quantité de TH au niveau du LC, coupe 8: 3%

## N#CCN1CCC[C@@H]2C(=O)N3c4ccccc4C[C@H]3[C@@H]21 (racemic) [Exemple 10, [(4aSR,11aSR,11bRS)-5-Oxo-3,4,4a,11,11a,11b-hexahydro-2H,5H-pyrido[2',3':3,4]pyrrolo[1,2-a]indol-1-yl]acétonitrile]
  quantité de TH au niveau du LC, coupe 1: 58%
  quantité de TH au niveau du LC, coupe 2: 50%
  quantité de TH au niveau du LC, coupe 3: 49%
  quantité de TH au niveau du LC, coupe 4: 47%
  quantité de TH au niveau du LC, coupe 5: 34%
  quantité de TH au niveau du LC, coupe 6: 26%
  quantité de TH au niveau du LC, coupe 7: 18%
  quantité de TH au niveau du LC, coupe 8: 1%

## CN1CCC[C@H]2C(=O)N3c4ccccc4C[C@@H]3[C@H]21 [Exemple 52, (4aR,11aR,11bS)-1-méthyl-1,2,3,4,4a,11,11a,11b-octahydropyrido[2'3':3,4]pyrrolo[1,2-a]indol-5-one]
  quantité de TH au niveau du LC, coupe 1: 69%
  quantité de TH au niveau du LC, coupe 2: 86%
  quantité de TH au niveau du LC, coupe 3: 79%
  quantité de TH au niveau du LC, coupe 4: 77%
  quantité de TH au niveau du LC, coupe 5: 40%
  quantité de TH au niveau du LC, coupe 6: 22%
  quantité de TH au niveau du LC, coupe 7: 12%
  quantité de TH au niveau du LC, coupe 8: 1%

## CN1CCC[C@@H]2C(=O)N3c4ccccc4C[C@H]3[C@@H]21 (racemic) [Exemple 7, (4aSR,11aSR,11bRS)-1-Méthyl-1,2,3,4,4a,11,11a,11b-octahydropyrido[2',3':3,4]pyrrolo[1,2-a]indol-5-one]
Listed as Ex.7, 20 mg/kg
  quantité de TH au niveau du LC, coupe 1: 59%
  quantité de TH au niveau du LC, coupe 2: 57%
  quantité de TH au niveau du LC, coupe 3: 57%
  quantité de TH au niveau du LC, coupe 4: 51%
  quantité de TH au niveau du LC, coupe 5: 28%
  quantité de TH au niveau du LC, coupe 6: 23%
  quantité de TH au niveau du LC, coupe 7: 13%
  quantité de TH au niveau du LC, coupe 8: 4%

## Cc1ccc2c(c1)cc1n2C(=O)C2=C1N(C)CCC2 [Exemple 38, 1,9-Diméthyl-1,2,3,4-tétrahydropyrido[2',3':3,4]pyrrolo[1,2-a]indol-5-one]
  quantité de TH au niveau du LC, coupe 1: 64%
  quantité de TH au niveau du LC, coupe 2: 99%
  quantité de TH au niveau du LC, coupe 3: 76%
  quantité de TH au niveau du LC, coupe 4: 62%
  quantité de TH au niveau du LC, coupe 5: 27%
  quantité de TH au niveau du LC, coupe 6: 14%
  quantité de TH au niveau du LC, coupe 7: -3%
  quantité de TH au niveau du LC, coupe 8: 5%

## CCCN1CC[C@@H]2c3ccccc3N3NC(=O)C[C@H]1[C@@H]23 [Exemple 15, (3aSR,6aRS,10cRS)-4-Propyl-(3a,4,5,6,6a,10c-hexahydro)-3H-1,4,10b-triazafluoranthén-2-one]
  quantité de TH au niveau du LC, coupe 1: 79%
  quantité de TH au niveau du LC, coupe 2: 75%
  quantité de TH au niveau du LC, coupe 3: 72%
  quantité de TH au niveau du LC, coupe 4: 79%
  quantité de TH au niveau du LC, coupe 5: 33%
  quantité de TH au niveau du LC, coupe 6: 27%
  quantité de TH au niveau du LC, coupe 7: 7%
  quantité de TH au niveau du LC, coupe 8: 5%

Source: patent EP2102204B1, “NEW AMINOPYRROLO[1,2- A]INDOLE ET AMINOPYRIDAZINO[1,6-A]INDOLE DERIVATIVES, METHOD FOR PREPARING THE SAME AND PHARMACEUTICAL COMPOSITIONS CONTAINING THE SAME” (Les Laboratoires Servier, priority 2007, dated 2008)
